Data on 13 compounds can be found in ChEMBL document CHEMBL3046116, “QSAR and pharmacophore analysis of thiosemicarbazone derivatives as ribonucleotide reductase inhibitors” (Med Chem Res, 2012).

The target of the assay is T1, Ribonucleoside-diphosphate reductase RR1 (Homo sapiens, UniProt P23921+P31350+Q7LG56).
T1 sequence (P23921 whole entry): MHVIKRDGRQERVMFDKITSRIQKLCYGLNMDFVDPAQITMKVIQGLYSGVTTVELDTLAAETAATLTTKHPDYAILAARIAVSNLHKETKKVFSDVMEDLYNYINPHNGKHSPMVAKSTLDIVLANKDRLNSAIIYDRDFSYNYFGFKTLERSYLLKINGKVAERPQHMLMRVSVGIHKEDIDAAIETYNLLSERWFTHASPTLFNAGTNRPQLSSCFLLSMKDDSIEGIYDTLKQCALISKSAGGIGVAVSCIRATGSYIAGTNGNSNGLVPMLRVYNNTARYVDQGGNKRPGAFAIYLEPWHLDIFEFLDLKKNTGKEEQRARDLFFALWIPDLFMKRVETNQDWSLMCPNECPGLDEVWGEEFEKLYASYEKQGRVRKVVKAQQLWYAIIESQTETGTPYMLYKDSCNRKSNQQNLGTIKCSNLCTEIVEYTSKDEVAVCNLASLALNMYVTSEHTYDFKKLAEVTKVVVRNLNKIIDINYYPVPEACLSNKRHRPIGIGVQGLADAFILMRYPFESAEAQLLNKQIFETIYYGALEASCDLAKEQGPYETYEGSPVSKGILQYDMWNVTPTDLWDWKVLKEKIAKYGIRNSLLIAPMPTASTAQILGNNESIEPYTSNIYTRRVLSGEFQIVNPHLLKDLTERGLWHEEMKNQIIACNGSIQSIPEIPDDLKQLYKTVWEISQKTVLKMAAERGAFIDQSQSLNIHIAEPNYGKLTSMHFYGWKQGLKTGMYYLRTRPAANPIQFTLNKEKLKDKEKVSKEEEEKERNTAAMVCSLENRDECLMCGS
T1 sequence (Q7LG56 whole entry): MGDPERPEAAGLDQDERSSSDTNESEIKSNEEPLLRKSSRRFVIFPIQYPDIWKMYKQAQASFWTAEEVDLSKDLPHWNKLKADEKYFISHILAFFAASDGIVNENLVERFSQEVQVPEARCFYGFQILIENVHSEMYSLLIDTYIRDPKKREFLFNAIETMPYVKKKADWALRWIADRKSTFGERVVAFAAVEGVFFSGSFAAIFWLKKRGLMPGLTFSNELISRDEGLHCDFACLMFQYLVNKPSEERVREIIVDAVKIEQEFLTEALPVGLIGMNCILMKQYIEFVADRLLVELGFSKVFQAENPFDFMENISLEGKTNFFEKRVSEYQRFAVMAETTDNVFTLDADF
T1 sequence (P31350 whole entry): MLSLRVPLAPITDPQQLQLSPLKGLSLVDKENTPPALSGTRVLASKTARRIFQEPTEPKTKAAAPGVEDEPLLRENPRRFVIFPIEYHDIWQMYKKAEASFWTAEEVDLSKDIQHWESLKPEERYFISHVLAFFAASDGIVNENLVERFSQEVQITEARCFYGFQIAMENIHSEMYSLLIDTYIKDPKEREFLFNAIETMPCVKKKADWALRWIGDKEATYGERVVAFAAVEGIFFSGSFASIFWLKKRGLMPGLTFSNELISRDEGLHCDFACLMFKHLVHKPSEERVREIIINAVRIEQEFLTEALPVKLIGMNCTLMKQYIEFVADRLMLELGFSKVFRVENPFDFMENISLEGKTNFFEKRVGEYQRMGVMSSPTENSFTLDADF
Kind of assay: Inhibition of N-terminal 6xHis-tagged Homo sapiens (human) recombinant ribonucleotide reductase M2/M1 expressed in Escherichia coli BL21 (DE3) using [3H]CDP as substrate after 30 min.

As to `Oc1ccc(/C=N/NC(=S)Nc2ccccc2O)cc1`, the IC50 (commonly the concentration at which inhibition is half-maximal) is 29.3 µM.

For `Oc1ccc(/C=N/NC(=S)Nc2cccc(Cl)c2)cc1`, the IC50 was 29.3 µM.

Turning to `Cc1cccc(NC(=S)N/N=C/c2ccc(O)cc2)c1`, the IC50 was 30.4 µM.

For `Oc1ccc(/C=N/NC(=S)Nc2cccc(O)c2)cc1`, the half-inhibitory concentration (IC50) is 28.6 µM.

Regarding `Oc1ccc(/C=N/NC(=S)Nc2ccccc2Cl)cc1`, the IC50 was 46.8 µM.

Turning to `Oc1ccc(/C=N/NC(=S)Nc2ccc(O)cc2)cc1`, the IC50 was 43.3 µM.

With `O=[N+]([O-])c1ccccc1NC(=S)N/N=C/c1ccc(O)cc1`, the IC50 is 39.3 µM.

As to `Cc1ccc(NC(=S)N/N=C/c2ccc(O)cc2)cc1`, the IC50 is 14.2 µM.

As to `COc1ccccc1NC(=S)N/N=C/c1ccc(O)cc1`, the IC50 was 41.6 µM.

For the compound `Cc1ccccc1NC(=S)N/N=C/c1ccc(O)cc1`, the IC50 was 36.5 µM.

With `O=[N+]([O-])c1ccc(NC(=S)N/N=C/c2ccc(O)cc2)cc1`, the IC50 is 45.1 µM.

Take `Oc1ccc(/C=N/NC(=S)Nc2ccccc2)cc1`: the IC50 was 242 µM.

Turning to `Oc1ccc(/C=N/NC(=S)Nc2ccc(Cl)cc2)cc1`, the IC50 was 287 µM.
